Holding throughout (type): cell-based
Settings in all cases: Hepatitis C virus

The test system of assay [1] is HCV genotype 1a replicon, NS5A M28V. The assay can be described thus: Transient replication assay, GT1a NS5A M28V.
Assay [2] deals with HCV genotype 1a replicon, NS5A Q30R H58D. Put plainly: Transient replication assay, GT1a NS5A Q30R H58D.
The test system of assay [3] is HCV genotype 1a replicon, NS5A Q30R Y93H. Put plainly: Transient replication assay, GT1a NS5A Q30R Y93H.
The next assay deals with GT2a-5a-SA13 replicon. Put plainly: Stable replicon assay, comparison to daclatasvir, GT2a-5a-SA13. An excerpt:
The plasmid pSG-hRlucNeo-JFH1 was generated from pSG-Neo-JFH1 (Kato et al. 2003, Gastroentrology 125:1808-1817). A fragment containing the JFH-1 5′ NTR-hRluc-Neo gene and two unique restriction sites (AgeI and PmeI) was synthesized (Integrated DNA Technologies, Coralville, Iowa). The resulting plasmid was digested with AgeI and PmeI and the excised fragment (5′NTR-hRluc-Neo) was ligated into pSG-Neo-JFH1 digested with the same enzymes to generate pSG-hRlucNeo-JFH1. To allow expression of heterologous NS5A sequences, an NS5A shuttle vector was generated from pSG-Neo-JFH1, in which the entire coding sequence of NS5A plus the first eight codons of NS5B were replaced with an AfeI restriction site. This was done by Infusion cloning (Clontech, Mountain View, Calif.) from two PCR products that were generated using pSG-Neo-JFH1 as a template and the following primer pairs: […]
Stable HCV replicon cell lines were grown in complete media (Dulbecco's modified Eagle medium [DMEM], 2 mM L-glutamine, 0.1 mM essential amino acids, 1 mM sodium pyruvate, 10% fetal bovine serum) with the addition 500 μg/ml […] (G418). […] For stable and transient replicon assays, luciferase activity of compound-treated cells was measured relative to DMSO-treated cells after 72 h incubation using RENILLA-GLO™ Luciferase Assay (Promega). […]

Assay [4] deals with HCV genotype 1a replicon, NS5A H58D. The assay can be described thus: Transient replication assay, GT1a NS5A H58D.
Assay [5] relates to HCV genotype 1a replicon, NS5A K24E. The assay can be described thus: Transient replication assay, GT1a NS5A K24E.
Another assay concerns GT2a-6a-HK6a replicon. Put plainly: Stable replicon assay, comparison to daclatasvir, GT2a-6a-HK6a. An excerpt: The plasmid pSG-hRlucNeo-JFH1 was generated from pSG-Neo-JFH1 (Kato et al. 2003, Gastroentrology 125:1808-1817). A fragment containing the JFH-1 5′ NTR-hRluc-Neo gene and two unique restriction sites (AgeI and PmeI) was synthesized (Integrated DNA Technologies, Coralville, Iowa). The resulting plasmid was digested with AgeI and PmeI and the excised fragment (5′NTR-hRluc-Neo) was ligated into pSG-Neo-JFH1 digested with the same enzymes to generate pSG-hRlucNeo-JFH1. To allow expression of heterologous NS5A sequences, an NS5A shuttle vector was generated from pSG-Neo-JFH1, in which the entire coding sequence of NS5A plus the first eight codons of NS5B were replaced with an AfeI restriction site. This was done by Infusion cloning (Clontech, Mountain View, Calif.) from two PCR products that were generated using pSG-Neo-JFH1 as a template and the following primer pairs:
To express GT6a NS5A chimeric sequences a JFH1-based N-terminal NS5A (NS5A residues 2-107) shuttle vector was constructed by Infusion cloning from two PCR products that were generated using pSG-Neo-JFH1 as a template and the following primers: […]
Purified PCR products were inserted into an NsiI/SnaBI digested pSG-Neo-JFH1 vector by Infusion cloning following the manufacturer's instructions to generate pSG-Neo-JFH1-Nterm_5Ashuttle. […]

The structures appear in SMILES notation.

As to `COC(=O)N[C@H](C(=O)N1C[C@]2(CCCOC2)C[C@H]1c1ncc(-c2ccc(-c3ccc4c(ccc5nc([C@@H]6C[C@@H]7CCC[C@@H]7N6C(=O)[C@@H](NC(=O)OC)C(C)C)[nH]c54)c3)cc2)[nH]1)C(C)C` [Compound 16], the EC50 in assay [1] worked out at 1.5 pM; in assay [2], 2800 pM; in assay [3], 38000 pM; with GT2a-5a-SA13 replicon, 5 pM; in assay [4], 10 pM; in assay [5], 1.3 pM. In the assay on GT2a-6a-HK6a replicon, this compound registered an EC50 of 2 pM.
Take `COC(=O)N[C@H](C(=O)N1CCC[C@H]1c1nc(-c2ccc(-c3ccc(-c4c[nH]c([C@@H]5CCCN5C(=O)[C@@H](NC(=O)OC)C(C)C)n4)cc3)cc2)c[nH]1)C(C)C` [Daclatasvir, reference compound]: the EC50 in assay [1] worked out at 7.3 pM; in assay [2], 838000 pM; in assay [3], 243000 pM; with GT2a-5a-SA13 replicon, 9 pM; in assay [4] it was 1200 pM; in assay [5] it was 2.2 pM. Also, the EC50 in the assay with GT2a-6a-HK6a replicon was found to be 5 pM.
